# Measurements as given in patent publication US20040023994A1 (priority 2002, published 2004).
# Like-named read-outs stand apart in the source and are kept apart here. Marks after values point to notes of the source that are not given here.
# Experiments:
# IGR-OV1 = settings: IGR-OV1, Ovarian, NCI database, cited from earlier work; for CC50: read-out: LC50 (the source's name)
# DU-145 = settings: DU-145, Prostate, NCI database, cited from earlier work; for CC50: read-out: LC50 (the source's name)
# SK-OV-3 = settings: SK-OV-3, Ovarian, NCI database, cited from earlier work; for CC50: read-out: LC50 (the source's name)
# COLO 205 [1] = settings: COLO 205, Colon, NCI database, cited from earlier work; for CC50: read-out: LC50 (the source's name)
# OVCAR-8 = settings: OVCAR-8, Ovarian, NCI database, cited from earlier work; for CC50: read-out: LC50 (the source's name)
# NCI/ADR-RES = settings: Breast, NCI database, cited from earlier work; for CC50: read-out: LC50 (the source's name)
# 786-0 = settings: 786-0, Renal, NCI database, cited from earlier work; for CC50: read-out: LC50 (the source's name)
# SN12C = settings: Renal, NCI database, cited from earlier work; for CC50: read-out: LC50 (the source's name)
# MOLT-4 = settings: for CC50: read-out: LC50
# MDA-N = type: cell-based; settings: Breast, 48 h
# HCT-15 = settings: for CC50: read-out: LC50
# UACC-62 = settings: for CC50: read-out: LC50
# COLO 205 [2] = settings: for CC50: read-out: LC50
# SF-268 = settings: for CC50: read-out: LC50
# PC-3 = type: cell-based; settings: PC-3, Prostate, 48 h
# SF-539 = settings: for CC50: read-out: LC50
# HS 578T = settings: 48 h; for CC50: read-out: LC50
# A549/ATCC = settings: for CC50: read-out: LC50
# HOP-62 = settings: for CC50: read-out: LC50
# [3] = test system: Heterozygous nude CD-1 male mice; experiment: Hematology analyses in treated mice; settings: i.p.; for change in peripheral white blood cell counts: trans-AVTG: only 21.25 μmol/kg two cycles, 6-TG: 8.5 or 21.25 μmol/kg one cycle or 21.25 μmol/kg two cycles
# Description: (§1) Heterozygous nude CD-1 male mice were treated (i.p.) with multiple doses consisting of either one dose daily for three consecutive days (cis-AVTP or trans-AVTG, 21.25 μmol/kg, 6-TG, 8.5 or 21.25 μmol/kg, or vehicle; one cycle), or one dose daily for three consecutive days, repeated again five days later (cis-AVTP, trans-AVTG or 6-TG, 8.5 or 21.25 μmol/kg, or vehicle; two cycles).
# (§2) The mice were sacrificed 24 h after the last treatment. Urine was collected for 24 h before initiation of treatment and every 24 h thereafter until the mice were sacrificed. Blood was collected by cardiac puncture and blood cells counted. Sections of liver, kidney, intestines, stomach and sternum were stained with hematoxylin and eosin and subjected to pathological analysis. Bone marrow smears were prepared for assessment of bone marrow cellularity. Liver function was evaluated by measuring alanine aminotransferase-(ALT) and aspartate aminotransferase (AST) activities in plasma. Kidney function was evaluated by measuring blood urea nitrogen in plasma and γ-glutamyltransferase activity and glucose levels in urine.
# [4] = test system: Heterozygous nude CD-1 male mice; experiment: Intestinal pathological analysis (crypt epithelial cell apoptosis) in treated mice; settings: multiple doses
# Description: as §1, §2
# [5] = A549/ATCC, Non-Small Cell Lung, 48 h
# [6] = HOP-62, Non-Small Cell Lung, 48 h
# [7] = Homo sapiens, read-out: LC50 (the source's name)
compound,measurement,setting,value
"Sc1ncnc2nc[nH]c12 [6-MP, 6-mercaptopurine]",GI50,IGR-OV1,8.59 µM
same,TGI,IGR-OV1,>100 µM
same,CC50,IGR-OV1,> 100 µM
same,GI50,DU-145,1.73 µM
same,TGI,DU-145,>100 µM
same,CC50,DU-145,> 100 µM
same,GI50,SK-OV-3,0.97 µM
same,TGI,SK-OV-3,>100 µM
same,CC50,SK-OV-3,> 100 µM
same,GI50,COLO 205 [1],4.68 µM
same,TGI,COLO 205 [1],>100 µM
same,CC50,COLO 205 [1],> 100 µM
same,GI50,OVCAR-8,2.44 µM
same,TGI,OVCAR-8,>100 µM
same,CC50,OVCAR-8,> 100 µM
same,CC50,NCI/ADR-RES,> 100 µM
same,GI50,NCI/ADR-RES,3.18 µM
same,TGI,NCI/ADR-RES,>100 µM
same,GI50,786-0,1.87 µM
same,TGI,786-0,>100 µM
same,CC50,786-0,> 100 µM
same,CC50,SN12C,> 100 µM
same,GI50,SN12C,22.6 µM
same,TGI,SN12C,>100 µM
"CC(=O)C=CSc1nc(N)nc2nc[nH]c12 [trans-AVTG, 6-(2-acetylvinylthio) guanine]",GI50,"MOLT-4; MOLT-4, Leukemia, 48 h",0.7 µM
same,TGI,"MOLT-4; MOLT-4, Leukemia, 48 h",>100 µM
same,CC50,"MOLT-4; MOLT-4, Leukemia, 48 h",> 100 µM
same,GI50,MDA-N,1.28 µM
same,TGI,MDA-N,10.3 µM
same,GI50,"HCT-15; HCT-15, Colon, 48 h",1.73 µM
same,TGI,"HCT-15; HCT-15, Colon, 48 h",19.4 µM
same,CC50,"HCT-15; HCT-15, Colon, 48 h",> 100 µM
same,GI50,"UACC-62; UACC-62, Melanoma, 48 h",0.28 µM
same,TGI,"UACC-62; UACC-62, Melanoma, 48 h",0.93 µM
same,CC50,"UACC-62; UACC-62, Melanoma, 48 h",24.9 µM
same,GI50,"COLO 205 [2]; COLO 205, Colon, 48 h",1.87 µM
same,TGI,"COLO 205 [2]; COLO 205, Colon, 48 h",3.98 µM
same,CC50,"COLO 205 [2]; COLO 205, Colon, 48 h",8.43 µM
same,GI50,"SF-268; SF-268, CNS, 48 h",< 0.01 µM
same,TGI,"SF-268; SF-268, CNS, 48 h",0.43 µM
same,CC50,"SF-268; SF-268, CNS, 48 h",24.4 µM
same,GI50,PC-3,3.96 µM
same,TGI,PC-3,19.7 µM
same,GI50,"ACHN; Renal, 48 h",3.63 µM
same,TGI,"ACHN; Renal, 48 h",51.4 µM
same,CC50,"ACHN; read-out: LC50, Renal, 48 h",> 100 µM
same,GI50,"SF-539; SF-539, CNS, 48 h",0.81 µM
same,TGI,"SF-539; SF-539, CNS, 48 h",16.3 µM
same,CC50,"SF-539; SF-539, CNS, 48 h",> 100 µM
same,GI50,"HS 578T; HS 578T, Breast",1.78 µM
same,TGI,"HS 578T; HS 578T, Breast",26.9 µM
same,CC50,"HS 578T; HS 578T, Breast",> 100 µM
same,GI50,A549/ATCC; [5],5.75 µM
same,TGI,A549/ATCC; [5],32.8 µM
same,CC50,A549/ATCC; [5],> 100 µM
same,GI50,HOP-62; [6],1.62 µM
same,TGI,HOP-62; [6],>100 µM
same,CC50,HOP-62; [6],> 100 µM
"Nc1nc2nc[nH]c2c(=S)[nH]1 [6-TG, 6-thioguanine]",GI50,IGR-OV1,4.79 µM
same,TGI,IGR-OV1,>100 µM
same,CC50,IGR-OV1,> 100 µM
same,GI50,DU-145,0.78 µM
same,TGI,DU-145,>100 µM
same,CC50,DU-145,> 100 µM
same,PLT,"[3]; 8.5 μmol/kg, one cycle",1172 ± 161 × 10^3 cells/μl
same,RBC,"[3]; 8.5 μmol/kg, one cycle",8.3 ± 0.4 × 10^6 cells/μl
same,WBC,"[3]; 8.5 μmol/kg, one cycle",4.8 ± 1.2 × 10^3 cells/μl
same,PLT,"[3]; 8.5 μmol/kg, two cycles",906 ± 140 × 10^3 cells/μl
same,RBC,"[3]; 8.5 μmol/kg, two cycles",8.3 ± 0.2 × 10^6 cells/μl
same,WBC,"[3]; 8.5 μmol/kg, two cycles",5.3 ± 1.6 × 10^3 cells/μl
same,PLT,"[3]; 21.25 μmol/kg, one cycle",752 ± 416^b × 10^3 cells/μl
same,RBC,"[3]; 21.25 μmol/kg, one cycle",8.4 ± 0.6^a × 10^6 cells/μl
same,WBC,"[3]; 21.25 μmol/kg, one cycle","3.8 ± 1.1^b,* × 10^3 cells/μl"
same,PLT,"[3]; 21.25 μmol/kg, two cycles",1351 ± 126 × 10^3 cells/μl
same,RBC,"[3]; 21.25 μmol/kg, two cycles",8.0 ± 0.3 × 10^6 cells/μl
same,WBC,"[3]; 21.25 μmol/kg, two cycles",3.6 ± 0.1 × 10^3 cells/μl
same,change in peripheral white blood cell counts,[3],reduced white blood cell counts
same,GI50,SK-OV-3,0.54 µM
same,TGI,SK-OV-3,16.4 µM
same,CC50,SK-OV-3,> 100 µM
same,GI50,COLO 205 [1],1.67 µM
same,TGI,COLO 205 [1],8.75 µM
same,CC50,COLO 205 [1],34.5 µM
same,GI50,OVCAR-8,0.69 µM
same,TGI,OVCAR-8,60.0 µM
same,CC50,OVCAR-8,> 100 µM
same,CC50,NCI/ADR-RES,> 100 µM
same,GI50,NCI/ADR-RES,0.59 µM
same,TGI,NCI/ADR-RES,35.6 µM
same,"crypt epithelial apoptosis, large intestines",[4],considerable crypt cell apoptosis
same,"crypt epithelial cell apoptosis, small intestines",[4],extensively
same,GI50,786-0,0.82 µM
same,TGI,786-0,>100 µM
same,CC50,786-0,> 100 µM
same,CC50,SN12C,> 100 µM
same,GI50,SN12C,1.25 µM
same,TGI,SN12C,>100 µM
"CC(=O)C=CSc1ncnc2nc[nH]c12 [cis-AVTP, 6-(2-acetylvinylthio) purine]",GI50,"MOLT-4; Homo sapiens, MOLT-4, 48 h",0.36 µM
same,CC50,"MOLT-4; Homo sapiens, MOLT-4, 48 h",> 100 µM
same,TGI,"MOLT-4; MOLT-4, Leukemia, 48 h",>100 µM
same,PLT,"[3]; 8.5 μmol/kg, two cycles",1160 ± 349 × 10^3 cells/μl
same,RBC,"[3]; 8.5 μmol/kg, two cycles",9.5 ± 0.3 × 10^6 cells/μl
same,WBC,"[3]; 8.5 μmol/kg, two cycles",5.9 ± 2.3 × 10^3 cells/μl
same,PLT,"[3]; 21.25 μmol/kg, one cycle",1644 ± 253^a × 10^3 cells/μl
same,RBC,"[3]; 21.25 μmol/kg, one cycle",8.9 ± 0.6^a × 10^6 cells/μl
same,WBC,"[3]; 21.25 μmol/kg, one cycle",8.0 ± 1.2^a × 10^3 cells/μl
same,PLT,"[3]; 21.25 μmol/kg, two cycles",1257 ± 335 × 10^3 cells/μl
same,RBC,"[3]; 21.25 μmol/kg, two cycles",9.0 ± 0.5 × 10^6 cells/μl
same,WBC,"[3]; 21.25 μmol/kg, two cycles",8.4 ± 1.9 × 10^3 cells/μl
same,change in peripheral white blood cell counts,[3],No change
same,TGI,MDA-N,4.48 µM
same,GI50,MDA-N; Homo sapiens,0.55 µM
same,CC50,MDA-N; [7],> 100 µM
same,TGI,"HCT-15; HCT-15, Colon, 48 h",5.98 µM
same,GI50,"HCT-15; Homo sapiens, HCT-15, 48 h",1.88 µM
same,CC50,"HCT-15; Homo sapiens, HCT-15, 48 h",41.3 µM
same,GI50,"UACC-62; Homo sapiens, UACC-62, 48 h",0.23 µM
same,CC50,"UACC-62; Homo sapiens, UACC-62, 48 h",5.88 µM
same,TGI,"UACC-62; UACC-62, Melanoma, 48 h",1.10 µM
same,TGI,"COLO 205 [2]; COLO 205, Colon, 48 h",1.70 µM
same,GI50,"COLO 205 [2]; Homo sapiens, COLO 205, 48 h",0.46 µM
same,CC50,"COLO 205 [2]; Homo sapiens, COLO 205, 48 h",4.74 µM
same,GI50,"SF-268; Homo sapiens, SF-268, 48 h",< 0.01 µM
same,CC50,"SF-268; Homo sapiens, SF-268, 48 h",27.7 µM
same,TGI,"SF-268; SF-268, CNS, 48 h",0.24 µM
same,"crypt epithelial apoptosis, large intestines",[4],no increase
same,"crypt epithelial cell apoptosis, small intestines",[4],increased slightly
same,GI50,PC-3; Homo sapiens,2.05 µM
same,CC50,PC-3; [7],85.1 µM
same,TGI,PC-3,10.2 µM
same,GI50,"ACHN; Homo sapiens, 48 h",1.99 µM
same,CC50,"ACHN; Homo sapiens, 48 h, read-out: LC50",7.59 µM
same,TGI,"ACHN; Renal, 48 h",3.89 µM
same,GI50,"SF-539; Homo sapiens, SF-539, 48 h",0.65 µM
same,CC50,"SF-539; Homo sapiens, SF-539, 48 h",11.8 µM
same,TGI,"SF-539; SF-539, CNS, 48 h",2.86 µM
same,TGI,"HS 578T; HS 578T, Breast",8.79 µM
same,GI50,"HS 578T; Homo sapiens, Hs-578T",0.46 µM
same,CC50,"HS 578T; Homo sapiens, Hs-578T",> 100 µM
same,TGI,A549/ATCC; [5],24.3 µM
same,GI50,"A549/ATCC; Homo sapiens, A549, 48 h",6.94 µM
same,CC50,"A549/ATCC; Homo sapiens, A549, 48 h",69.5 µM
same,TGI,HOP-62; [6],21.2 µM
same,GI50,"HOP-62; Homo sapiens, HOP-62, 48 h",0.4 µM
same,CC50,"HOP-62; Homo sapiens, HOP-62, 48 h",88.9 µM
